Measured values: patent US11964973B2 (priority 2019, dated 2024)
Where two headings read alike, the source gives them in different places.

Assays:
Human DGKα(9-727) = Human DGKα(9-727) (Homo sapiens (Human), UniProt P23743); assay: biochemical; conditions: liposome (LIPGLO) assay; Table A; read-out: DGKα LIPGLO IC50
full length human DGKζ = full length human DGKζ (Homo sapiens (Human), UniProt Q13574); assay: In vitro DGK inhibition assay, Method B (DGKζ LIPGLO, extruded liposomes); assay type: biochemical
[1] = system: human venous whole blood, CD8 positive population (pERK); assay: DGK human whole blood pERK assay; assay type: cell-based; conditions: top concentration 20 μM
Outline: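 Heparinized whole blood from healthy donors preincubated with compound 1 hour at 37° C. Stimulation used anti-CD3 at 1 μg/mL final plus cross-linking goat anti-mouse IgG for 15 minutes. Flow cytometry scored percentage pERK-positive cells among CD8-positive cells.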

[2] = system: naïve human CD8 T cells (IFN-γ); assay: Human CD8 T cells IFN-γ assay; assay type: cell-based; conditions: T-cell, read-out: HuCD8 INFG
Experimental: Assay 8: Human CD8 T Cells IFN-γ Assay
Frozen naïve human CD8 T cells were thawed in AIM-V media, incubated for 2 h in 37° C., and counted. The 384-well tissue culture plate was coated overnight at 4° C. with 20 μL anti-human CD3 at 0.05 μg/mL in PBS, which was removed off the plate before 40,000 cells per 40 microliters CD8 T cells with 0.1 μg/mL soluble anti-human CD28 were added to each well. The compounds were transferred using an Echo liquid handler to the cell plate immediately after the cells were plated. After 20 h incubation at 37° C. incubator, 3 microliters per well supernatants transferred into a new 384-well white assay plate for cytokine measurement.
Interferon-γ (IFN-γ) was quantitated using the AlphLISA kit (Cat #AL217) as described by the manufacturer manual (Perkin Elmer). The counts from each well were converted to IFN-γ concentration (pg/mL).

[3] = liposome (LIPGLO) assay, read-out: DGKζ LIPGLO IC50
[4] = read-out: DGK HWB (human whole blood pERK), human whole blood, CD8 positive population, anti-CD3 stimulation
[5] = human whole blood, CD8 positive population, anti-CD3 stimulation, read-out: DGK HWB (human whole blood pERK)
[6] = Homo sapiens, CD8 positive, human whole blood, CD8 positive population, anti-CD3 stimulation, read-out: DGK HWB (human whole blood pERK)

Human DGKα(9-727), sequence (P23743 whole entry, looked up): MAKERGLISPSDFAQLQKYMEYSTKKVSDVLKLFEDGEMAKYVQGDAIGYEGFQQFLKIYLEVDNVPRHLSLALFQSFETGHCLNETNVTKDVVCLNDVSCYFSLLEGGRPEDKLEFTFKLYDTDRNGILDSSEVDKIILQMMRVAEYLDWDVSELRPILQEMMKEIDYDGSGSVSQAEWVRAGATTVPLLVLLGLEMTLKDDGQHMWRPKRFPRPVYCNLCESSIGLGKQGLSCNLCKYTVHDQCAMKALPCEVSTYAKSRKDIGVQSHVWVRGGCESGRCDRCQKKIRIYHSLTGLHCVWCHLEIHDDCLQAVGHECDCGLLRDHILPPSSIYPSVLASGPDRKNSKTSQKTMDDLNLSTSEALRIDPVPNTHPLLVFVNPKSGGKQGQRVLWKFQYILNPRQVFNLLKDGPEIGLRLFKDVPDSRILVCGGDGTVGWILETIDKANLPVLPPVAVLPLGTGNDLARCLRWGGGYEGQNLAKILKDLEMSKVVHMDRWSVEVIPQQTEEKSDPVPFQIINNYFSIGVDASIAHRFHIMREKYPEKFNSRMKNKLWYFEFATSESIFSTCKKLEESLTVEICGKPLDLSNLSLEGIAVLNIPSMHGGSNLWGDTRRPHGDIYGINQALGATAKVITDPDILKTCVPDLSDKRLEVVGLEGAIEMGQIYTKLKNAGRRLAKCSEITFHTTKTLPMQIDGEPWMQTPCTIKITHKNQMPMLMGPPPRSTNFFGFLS
full length human DGKζ, sequence (Q13574 whole entry, looked up): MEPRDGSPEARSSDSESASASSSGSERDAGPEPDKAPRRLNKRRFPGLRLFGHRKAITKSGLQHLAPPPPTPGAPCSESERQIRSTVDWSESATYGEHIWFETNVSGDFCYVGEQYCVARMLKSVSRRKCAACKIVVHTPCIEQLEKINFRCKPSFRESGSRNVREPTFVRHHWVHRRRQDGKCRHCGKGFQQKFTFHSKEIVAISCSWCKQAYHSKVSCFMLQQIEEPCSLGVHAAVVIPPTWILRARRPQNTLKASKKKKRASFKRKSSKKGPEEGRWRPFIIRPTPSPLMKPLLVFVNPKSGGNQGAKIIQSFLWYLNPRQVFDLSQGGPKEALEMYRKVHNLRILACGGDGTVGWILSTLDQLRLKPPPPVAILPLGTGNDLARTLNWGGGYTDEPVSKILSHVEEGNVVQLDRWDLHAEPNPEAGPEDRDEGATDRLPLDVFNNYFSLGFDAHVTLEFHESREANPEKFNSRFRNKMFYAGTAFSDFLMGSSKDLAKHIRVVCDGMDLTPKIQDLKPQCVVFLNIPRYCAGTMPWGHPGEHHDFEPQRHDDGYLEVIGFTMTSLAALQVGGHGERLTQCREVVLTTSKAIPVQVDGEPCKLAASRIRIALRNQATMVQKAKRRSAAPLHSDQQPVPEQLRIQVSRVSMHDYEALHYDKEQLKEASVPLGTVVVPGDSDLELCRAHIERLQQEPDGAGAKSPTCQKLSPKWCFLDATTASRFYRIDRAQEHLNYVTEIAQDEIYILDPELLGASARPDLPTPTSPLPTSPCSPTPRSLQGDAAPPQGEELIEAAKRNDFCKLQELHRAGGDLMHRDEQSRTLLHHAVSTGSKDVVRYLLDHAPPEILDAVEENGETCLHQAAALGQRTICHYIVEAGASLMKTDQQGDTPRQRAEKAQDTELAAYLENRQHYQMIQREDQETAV

| Structure (SMILES) | IC50 (Human DGKα(9-727)) | IC50 (full length human DGKζ; [3]) | EC50 [1, 5] | other results |
| --- | --- | --- | --- | --- |
| CCO[C@H]1CN(c2nc(=O)n(C)c3ccc(C#N)nc23)CC[C@@H]1Oc1ccccc1 (relative stereo) [Example 403, trans-4-(3-Ethoxy-4-phenoxypiperidin-1-yl)-1-methyl-2-oxo-1,2-dihydropyrido[3,2-d] pyrimidine-6-carbonitrile] | 19 µM | 5.3 µM | – | EC50 [1, 4]: 11 µM |
| CCO[C@H]1CN(c2cc(=O)n(C)c3ccc(C#N)nc23)CC[C@@H]1Oc1ncc(OC(C)C)cn1 [Example 379, 8-((3S,4S)-3-ethoxy-4-((5-isopropoxypyrimidin-2-yl)oxy)piperidin-1-yl)-5-methyl-6-oxo-5,6-dihydro-1,5-naphthyridine-2-carbonitrile] | 0.58 µM | 3.1 µM | 7 µM | – |
| C[C@@H]1CN(c2cc(=O)n(C)c3ccc(C#N)nc23)[C@@H](C)CC1N(C)C(=O)c1ccc(F)cc1 (single isomer, unassigned) [Example 283B] | 42 µM | – | – | IC50 (full length human DGKζ): 42 µM |
| CN(C)CCO[C@@H]1CN(c2cc(=O)n(C)c3ccc(C#N)nc23)CC[C@H]1Oc1cccc(C(F)(F)F)c1 [Example 385, 8-((3R,4R)-3-(2-(dimethylamino)ethoxy)-4-(3-(trifluoromethyl)phenoxy)piperidin-1-yl)-5-methyl-6-oxo-5,6-dihydro-1,5-naphthyridine-2-carbonitrile] | 100 µM | 130 µM | – | – |
| CC(C)O[C@@H]1CN(c2cc(=O)n(C)c3ccc(C#N)nc23)CC[C@H]1Oc1cccc(C(F)(F)F)c1 (relative stereo) [Example 395, trans-8-(3-Isopropoxy-4-(3-(trifluoromethyl)phenoxy)piperidin-1-yl)-5-methyl-6-oxo-5,6-dihydro-1,5-naphthyridine-2-carbonitrile] | 0.32 µM | 0.069 µM | 0.91 µM | – |
| C[C@@H]1CN(c2cc(=O)n(C)c3ccc(C#N)nc23)[C@@H](C)CC1N(C)C(=O)c1ccc(F)cc1 (single isomer, unassigned) [Example 283A] | 26 µM | 14 µM | – | – |
| Cn1c(=O)c(Cl)c(N2CCC(Oc3ccc(OC(F)(F)F)cc3)CC2)c2nc(C#N)ccc21 [Example 238, 7-chloro-5-methyl-6-oxo-8-(4-(4-(trifluoromethoxy)phenoxy)piperidin-1-yl)-5,6-dihydro-1,5-naphthyridine-2-carbonitrile] | – | – | – | EC50 [2]: 0.16 µM |
| CCO[C@H]1CN(c2nc(=O)n(C)c3ccc(C#N)nc23)CC[C@@H]1Oc1ccc(C(F)(F)F)cc1 [Example 404, 4-((3S,4S)-3-ethoxy-4-(4-(trifluoromethyl)phenoxy)piperidin-1-yl)-1-methyl-2-oxo-1,2-dihydropyrido[3,2-d]pyrimidine-6-carbonitrile] | 5.6 µM | 1.2 µM | – | EC50 ([1]; Homo sapiens, CD8 positive, read-out: DGK HWB (human whole blood pERK), human whole blood, CD8 positive population, anti-CD3 stimulation): 1.3 µM |
| CCO[C@H]1CN(c2nc(=O)n(C)c3ccc(C#N)nc23)CC[C@@H]1Oc1ccccc1 (relative stereo) [Example 402, trans-4-(3-Ethoxy-4-phenoxypiperidin-1-yl)-1-methyl-2-oxo-1,2-dihydropyrido[3,2-d] pyrimidine-6-carbonitrile] | 2.1 µM | 0.9 µM | – | EC50 [1, 4]: 2.8 µM |
| Cn1c(=O)cc(N2CC[C@@H](Oc3cccc(C(F)(F)F)c3)[C@H](OCCN3CCOCC3)C2)c2nc(C#N)ccc21 [Example 392, 5-methyl-8-((3R,4R)-3-(2-morpholinoethoxy)-4-(3-(trifluoromethyl)phenoxy)piperidin-1-yl)-6-oxo-5,6-dihydro-1,5-naphthyridine-2-carbonitrile] | 42 µM | 24 µM | – | EC50 [1, 4]: 13 µM |
| CCO[C@H]1CN(c2cc(=O)n(C)c3ccc(C#N)nc23)CC[C@@H]1Oc1cnc(OC(C)C)cn1 [Example 377, 8-((3S,4S)-3-ethoxy-4-((5-isopropoxypyrazin-2-yl)oxy)piperidin-1-yl)-5-methyl-6-oxo-5,6-dihydro-1,5-naphthyridine-2-carbonitrile] | 0.13 µM | 0.075 µM | 0.45 µM | – |
| CN(C)CCO[C@@H]1CN(c2cc(=O)n(C)c3ccc(C#N)nc23)CC[C@H]1Oc1cccc(C(F)(F)F)c1 [Example 386, 8-((3R,4R)-3-(2-(dimethylamino)ethoxy)-4-(3-(trifluoromethyl)phenoxy)piperidin-1-yl)-5-methyl-6-oxo-5,6-dihydro-1,5-naphthyridine-2-carbonitrile] | 130 µM | 42 µM | – | EC50 [1, 6]: 20 µM |
| CCO[C@H]1CN(c2cc(=O)n(C)c3ccc(C#N)nc23)CC[C@@H]1Oc1ncc(OC(C)C)cn1 [Example 380, 8-((3S,4S)-3-ethoxy-4-((5-isopropoxypyrimidin-2-yl)oxy)piperidin-1-yl)-5-methyl-6-oxo-5,6-dihydro-1,5-naphthyridine-2-carbonitrile] | 1.3 µM | 14 µM | 20 µM | – |
| Cn1c(=O)cc(N2CC[C@@H](Oc3cccc(C(F)(F)F)c3)[C@H](OCC(F)(F)F)C2)c2nc(C#N)ccc21 [Example 393, 5-methyl-6-oxo-8-((3R,4R)-3-(2,2,2-trifluoroethoxy)-4-(3-(trifluoromethyl)phenoxy)piperidin-1-yl)-5,6-dihydro-1,5-naphthyridine-2-carbonitrile] | 1.1 µM | 0.38 µM | – | EC50 [1, 4]: 0.68 µM |
| COCCO[C@@H]1CN(c2cc(=O)n(C)c3ccc(C#N)nc23)CC[C@H]1Oc1cccc(C(F)(F)F)c1 [Example 390, 8-((3R,4R)-3-(2-methoxyethoxy)-4-(3-(trifluoromethyl)phenoxy)piperidin-1-yl)-5-methyl-6-oxo-5,6-dihydro-1,5-naphthyridine-2-carbonitrile] | – | 1.9 µM | – | EC50 [1, 4]: 20 µM |
| CCO[C@H]1CN(c2cc(=O)n(C)c3ccc(C#N)nc23)CC[C@@H]1OCc1cccc(C(F)(F)F)c1 [Example 381, 8-((3S,4S)-3-ethoxy-4-((3-(trifluoromethyl)benzyl)oxy)piperidin-1-yl)-5-methyl-6-oxo-5,6-dihydro-1,5-naphthyridine-2-carbonitrile] | 0.31 µM | 7.4 µM | – | EC50 [1, 6]: 0.24 µM |
| Cn1c(=O)cc(N2CC[C@@H](Oc3cccc(C(F)(F)F)c3)[C@H](OCC3CC3)C2)c2nc(C#N)ccc21 [Example 387, 8-((3R,4R)-3-(cyclopropylmethoxy)-4-(3-(trifluoromethyl)phenoxy)piperidin-1-yl)-5-methyl-6-oxo-5,6-dihydro-1,5-naphthyridine-2-carbonitrile] | 2.1 µM | 0.097 µM | 0.65 µM | – |
| CC(C)O[C@@H]1CN(c2cc(=O)n(C)c3ccc(C#N)nc23)CC[C@H]1Oc1cccc(C(F)(F)F)c1 (relative stereo) [Example 396, trans-8-(3-Isopropoxy-4-(3-(trifluoromethyl)phenoxy)piperidin-1-yl)-5-methyl-6-oxo-5,6-dihydro-1,5-naphthyridine-2-carbonitrile] | 38 µM | 3.6 µM | 14 µM | – |
| CCO[C@H]1CN(c2cc(=O)n(C)c3ccc(C#N)nc23)CC[C@@H]1OCc1cccc(C(F)(F)F)c1 (single isomer, unassigned) [Example 382] | 17 µM | 130 µM | – | EC50 [1, 6]: 20 µM |
| COCCO[C@@H]1CN(c2cc(=O)n(C)c3ccc(C#N)nc23)CC[C@H]1Oc1cccc(C(F)(F)F)c1 [Example 389, 8-((3R,4R)-3-(2-methoxyethoxy)-4-(3-(trifluoromethyl)phenoxy)piperidin-1-yl)-5-methyl-6-oxo-5,6-dihydro-1,5-naphthyridine-2-carbonitrile] | 2.5 µM | 0.27 µM | – | EC50 [1, 4]: 3 µM |
| CCO[C@@H]1CN(c2nc(=O)n(C)c3ccc(C#N)nc23)CC[C@H]1Oc1ccc(OC(C)C)cn1 (relative stereo) [Example 401, trans-4-(3-Ethoxy-4-((5-isopropoxypyridin-2-yl)oxy)piperidin-1-yl)-1-methyl-2-oxo-1,2-dihydropyrido[3,2-d]pyrimidine-6-carbonitrile] | 0.83 µM | 0.39 µM | 2.3 µM | – |
| CCO[C@@H]1CN(c2nc(=O)n(C)c3ccc(C#N)nc23)CC[C@H]1Oc1ccc(OC(C)C)cn1 (relative stereo) [Example 400, trans-4-(3-Ethoxy-4-((5-isopropoxypyridin-2-yl)oxy)piperidin-1-yl)-1-methyl-2-oxo-1,2-dihydropyrido[3,2-d]pyrimidine-6-carbonitrile] | 6.1 µM | 0.7 µM | 9.2 µM | – |
| CCO[C@H]1CN(c2cc(=O)n(C)c3ccc(C#N)nc23)CC[C@@H]1Oc1cnc(OC(C)C)cn1 [Example 378, 8-((3S,4S)-3-ethoxy-4-((5-isopropoxypyrazin-2-yl)oxy)piperidin-1-yl)-5-methyl-6-oxo-5,6-dihydro-1,5-naphthyridine-2-carbonitrile] | 7.7 µM | 5.2 µM | 10 µM | – |
